# From patent publication EP3184516A1, “CRYSTALLINE INCLUSION COMPLEXES OF MIRABEGRON WITH BETA-CYCLODEXTRIN” (Enantia, S.L., priority 2015, dated 2017)
# Counter-ions that a name gives are not always drawn. Like-named read-outs stand apart in the source and are kept apart here.
# Tests used:
# [1] = according to EP1440969A1, cited from earlier work
# [2] = Kalariya et al., RSC Adv. 2015; cited from earlier work
# [3] = Solubility tests performed by the present inventors; format: physicochemical
# From the text: Two different crystal forms of Mirabegron free base, named as α-form and β-form, were also disclosed in EP1440969A1.
# [4] = cited from earlier work
# [5] = Water solubility study at room temperature by HPLC analysis of saturated water solutions; format: physicochemical
# Procedure: A water solubility study at room temperature was performed comparing Mirabegron Form α and crystalline inclusion complexes of Mirabegron with β-cyclodextrin Forms I and II by HPLC analysis of saturated water solutions.
# A slurring of Mirabegron Form α was performed under the same conditions.
# A slurring of Mirabegron Form α (20 mg) was performed in the same conditions.
structure (smiles),measurement,setting,value
Nc1nc(CC(=O)Nc2ccc(CCNC[C@H](O)c3ccccc3)cc2)cs1 [dihydrochloride salt],hygroscopicity,[1],strongly hygroscopic
same,stability of crystal form,[1],unstable
"Nc1nc(CC(=O)Nc2ccc(CCNC[C@H](O)c3ccccc3)cc2)cs1 [Mirabegron, 2-(2-amino-1,3-thiazol-4-yl)-N-[4-(2-{[(2R)-2-hydroxy-2-phenylethyl]amino}ethyl)phenyl]acetamide]",degradation under hydrolytic and oxidative stress conditions,[2],degrades
same,stability under thermal and photolytic conditions,[2],stable
same,solubility in water at room temperature,[3],less than 50 volumes
same,solubility in water,"[4]; free base, AusPar / FDA prescribing information",82 µg/mL
"Nc1nc(CC(=O)Nc2ccc(CCNC[C@H](O)c3ccccc3)cc2)cs1 [β-form, 2-(2-amino-1,3-thiazol-4-yl)-N-[4-(2-{[(2R)-2-hydroxy-2-phenylethyl]amino}ethyl)phenyl]acetamide]",hygroscopicity,[1],low hygroscopicity
same,stability of crystal form,[1],metastable
"Nc1nc(CC(=O)Nc2ccc(CCNC[C@H](O)c3ccccc3)cc2)cs1 [Mirabegron Form α, 2-(2-amino-1,3-thiazol-4-yl)-N-[4-(2-{[(2R)-2-hydroxy-2-phenylethyl]amino}ethyl)phenyl]acetamide]",hygroscopicity,[1]; listed as α-form,non-hygroscopic
same,stability of crystal form,[1]; listed as α-form,stable
same,solubility in water (in words),[4]; according to EP1440969A1,practically insoluble
same,HPLC peak area corresponding to Mirabegron,"[5]; 20 mg stirred in 0.8 ml of water for 19h, mother liquor (Form I experiment)",1728 counts
same,HPLC peak area corresponding to Mirabegron,"[5]; 24 mg (Form α 20 mg) stirred in 1 ml of water for 19h, mother liquor (Form II experiment)",1570 counts
